Assay results taken from patent US20050026896A1, “Platinum(II) and platinum(IV) complexes and their use” (Faustus Forschungs Cie. Translational Cancer Research GmbH, priority 2001, published 2005).

Tested on: GMP as DNA constituent
Test: Reactivity with GMP: adduct formation under physiological and patho-physiological conditions
Format: biochemical
Excerpt: The reactivity of the compound cis-dichloro-bis(2-ethanolamine)platinum(II) was examined under physiological and patho-physiological conditions (FIG. 2). […] Chem. 39(4): 836-842 (2000); Choi, Sunhee; Mahalingaiah, Shruthi; Delaney, Sarah; Neale, Nathan R.; Masood, Syed “Substitution and Reduction of Platinum(IV) Complexes by a Nucleotide, Guanosine 5′-Monophosphate” Inorg. Chem. 38(8): 1800-1805 (1999); Chen, Yu; Guo, Zijian; Parkinson, John A.; Sadler, Peter J. “Kinetic control of reactions of a sterically hindered platinum picoline anticancer complex with guanosine 5′-monophosphate and glutathione” J. Chem. Soc., Dalton Trans.), 21: 3577-3586 (1998); Bloemink, Marieke J.; Perez, Janice M. J.; Heetebrij, Robert J.; Reedijk, Jan “The new anticancer drug [(2R)-aminomethylpyrrolidine](1,1-cyclobutanedicarboxylato)platinum(II) and its toxic S enantiomer do interact differently with nucleic acids” J. Biol. Inorg. Chem. 4(5): 554-567 (1999).
Similar to Example 8, the reactivity of the compound bis(2-ethanolatoamine-κ^2N,O)platinum(II) (see Example 8 for the synthesis) was examined. In this respect, the proportion of the nucleotide not modified by the active substance was measured.

C1C[O][Pt]2([NH]1)[NH]CC[O]2 [(SP-4-2)-[bis(2-aminoethanolato)-κ^2N,O]platinum(II)]
speed of reaction with the nucleotide (proportion of the nucleotide not modified by the active substance) (patho-physiological conditions (pH 6) compared to tissue free of disease (pH 7.4), FIG. 3): significantly increased speed

OCC[NH][Pt]([Cl])([Cl])[NH]CCO [(SP-4-2)-dichloro[bis(2-hydroxyethylamine)]platinum(II)]
selectivity of reaction, patho-physiological versus physiological conditions (FIG. 2, comparison of left and right diagram): Selectivity is therefore present | reactivity: reaction with the biological target (formation of adducts with GMP) (patho-physiological conditions (FIG. 2, left diagram)): rapid reaction | reactivity: reaction with the biological target (formation of adducts with GMP) (physiological conditions (FIG. 2, right diagram)): clearly runs slower
